Calls of active or inactive are those of the source. How the calls were made is not given here.
Tested on: CCRIS mutagenicity, Ames/micronucleus/aberration tests
Assay: CCRIS mutagenicity studies
[1] = Test System: AMES SALMONELLA TYPHIMURIUM, Strain/Indicator: TA98, Metabolic Activation: NONE, Method: STANDARD PLATE
[2] = Test System: AMES SALMONELLA TYPHIMURIUM, Strain/Indicator: TA98, Metabolic Activation: RAT, LIVER, S-9, AROCLOR 1254, Method: STANDARD PLATE
[3] = Test System: AMES SALMONELLA TYPHIMURIUM, Strain/Indicator: TA100, Metabolic Activation: NONE, Method: STANDARD PLATE
[4] = Test System: AMES SALMONELLA TYPHIMURIUM, Strain/Indicator: TA100, Metabolic Activation: RAT, LIVER, S-9, AROCLOR 1254, Method: STANDARD PLATE
[5] = Test System: AMES SALMONELLA TYPHIMURIUM, Strain/Indicator: TA1535, Metabolic Activation: NONE, Method: STANDARD PLATE
[6] = Test System: AMES SALMONELLA TYPHIMURIUM, Strain/Indicator: TA1535, Metabolic Activation: RAT, LIVER, S-9, AROCLOR 1254, Method: STANDARD PLATE
[7] = Test System: AMES SALMONELLA TYPHIMURIUM, Strain/Indicator: TA1537, Metabolic Activation: NONE, Method: STANDARD PLATE
[8] = Test System: AMES SALMONELLA TYPHIMURIUM, Strain/Indicator: TA1537, Metabolic Activation: RAT, LIVER, S-9, AROCLOR 1254, Method: STANDARD PLATE
[9] = Test System: AMES SALMONELLA TYPHIMURIUM, Strain/Indicator: TA1538, Metabolic Activation: NONE, Method: STANDARD PLATE
[10] = Test System: AMES SALMONELLA TYPHIMURIUM, Strain/Indicator: TA1538, Metabolic Activation: RAT, LIVER, S-9, AROCLOR 1254, Method: STANDARD PLATE

In the case of `C=C(C)C(=O)OCCCCCOC(=O)C(=C)C`, the mutagenic call [1] is reported as “inactive; negative”, the mutagenic call [2] is reported as “inactive; negative” and the mutagenic call (Test System: AMES SALMONELLA TYPHIMURIUM, Strain/Indicator: TA98, Metabolic Activation: RAT, LIVER, S-9, SODIUM PHENOBARBITAL, Method: STANDARD PLATE) is reported as “inactive; negative”. The mutagenic call [3] was “inactive; negative”, the mutagenic call [4] was “inactive; negative” and the mutagenic call (Test System: AMES SALMONELLA TYPHIMURIUM, Strain/Indicator: TA100, Metabolic Activation: RAT, LIVER, S-9, SODIUM PHENOBARBITAL, Method: STANDARD PLATE) was “inactive; negative”. The mutagenic call [5] was “inactive; negative”, the mutagenic call [6] was “inactive; negative” and the mutagenic call (Test System: AMES SALMONELLA TYPHIMURIUM, Strain/Indicator: TA1535, Metabolic Activation: RAT, LIVER, S-9, SODIUM PHENOBARBITAL, Method: STANDARD PLATE) was “inactive; negative”. For the same molecule, the mutagenic call [7] was “inactive; negative”, the mutagenic call [8] was “inactive; negative” and the mutagenic call (Test System: AMES SALMONELLA TYPHIMURIUM, Strain/Indicator: TA1537, Metabolic Activation: RAT, LIVER, S-9, SODIUM PHENOBARBITAL, Method: STANDARD PLATE) was “inactive; negative”. For the same molecule, the mutagenic call [9] was “inactive; negative”, the mutagenic call [10] was “inactive; negative” and the mutagenic call (Test System: AMES SALMONELLA TYPHIMURIUM, Strain/Indicator: TA1538, Metabolic Activation: RAT, LIVER, S-9, SODIUM PHENOBARBITAL, Method: STANDARD PLATE) was “inactive; negative”.

`FC(F)C(F)(F)F` was tested, and the mutagenic call [1] was “inactive; negative”, the mutagenic call [2] was “inactive; negative” and the mutagenic call [3] was “inactive; negative”. For the same molecule, the mutagenic call [4] was “inactive; negative”, the mutagenic call [5] was “inactive; negative” and the mutagenic call [6] was “inactive; negative”. The mutagenic call [7] was “inactive; negative”, the mutagenic call [8] was “inactive; negative” and the mutagenic call [9] was “inactive; negative”. The mutagenic call [10] was “inactive; negative”, the mutagenic call (Test System: E. COLI, Strain/Indicator: WP2 UVRA, Metabolic Activation: NONE, Method: STANDARD PLATE) was “inactive; negative” and the mutagenic call (Test System: E. COLI, Strain/Indicator: WP2 UVRA, Metabolic Activation: RAT, LIVER, S-9, AROCLOR 1254, Method: STANDARD PLATE) was “inactive; negative”.

With `CCBr` the mutagenic call (End Point: IN VITRO CHROMOSOMAL ABERRATIONS, Test System: CHO CELLS, Metabolic Activation: NONE) was “inactive; negative”, the mutagenic call (End Point: IN VITRO CHROMOSOMAL ABERRATIONS, Test System: CHO CELLS, Metabolic Activation: RAT, LIVER, S-9, AROCLOR 1254) was “inactive; negative” and the mutagenic call (End Point: In vitro Micronucleus, Test System: Chinese Hamster Ovary (CHO-WBL) cells, Metabolic Activation: None) was “inactive; negative”. The mutagenic call (Test System: AMES SALMONELLA TYPHIMURIUM, Strain/Indicator: TA97, Metabolic Activation: NONE, Method: STANDARD PLATE) was “active; positive”, the mutagenic call (Test System: AMES SALMONELLA TYPHIMURIUM, Strain/Indicator: TA97, Metabolic Activation: RAT, LIVER, S-9, AROCLOR 1254, Method: STANDARD PLATE) was “active; positive” and the mutagenic call (Test System: AMES SALMONELLA TYPHIMURIUM, Strain/Indicator: TA98, Metabolic Activation: HAMSTER, LIVER, S-9, AROCLOR 1254, Method: DESICCATOR) was “inactive; negative”. The mutagenic call (Test System: AMES SALMONELLA TYPHIMURIUM, Strain/Indicator: TA98, Metabolic Activation: NONE, Method: DESICCATOR) was “inactive; negative”, the mutagenic call [1] was “inactive; negative” and the mutagenic call (Test System: AMES SALMONELLA TYPHIMURIUM, Strain/Indicator: TA98, Metabolic Activation: RAT, LIVER, S-9, AROCLOR 1254, Method: DESICCATOR) was “inactive; negative”. For the same molecule, the mutagenic call [2] was “active; positive”, the mutagenic call (Test System: AMES SALMONELLA TYPHIMURIUM, Strain/Indicator: TA100, Metabolic Activation: HAMSTER, LIVER, S-9, AROCLOR 1254, Method: DESICCATOR) was “active; positive” and the mutagenic call (Test System: AMES SALMONELLA TYPHIMURIUM, Strain/Indicator: TA100, Metabolic Activation: NONE, Method: DESICCATOR) was “active; positive”. For the same molecule, the mutagenic call [3] was “inactive; negative”, the mutagenic call (Test System: AMES SALMONELLA TYPHIMURIUM, Strain/Indicator: TA100, Metabolic Activation: RAT, LIVER, S-9, AROCLOR 1254, Method: DESICCATOR) was “active; positive” and the mutagenic call [4] was “active; positive”. The mutagenic call (Test System: AMES SALMONELLA TYPHIMURIUM, Strain/Indicator: TA104, Metabolic Activation: NONE, Method: STANDARD PLATE) was “inactive; negative” and the mutagenic call (Test System: AMES SALMONELLA TYPHIMURIUM, Strain/Indicator: TA104, Metabolic Activation: RAT, LIVER, S-9, AROCLOR 1254, Method: STANDARD PLATE) was “active; positive”.

With `Nc1cc(N)cc(C(=O)O)c1` the mutagenic call (End Point: IN VITRO CHROMOSOMAL ABERRATIONS, Test System: CHL CELLS, Metabolic Activation: RAT, LIVER, S-9, SODIUM PHENOBARBITAL AND 5,6-BENZOFLAVONE) was “inactive; negative”, the mutagenic call (End Point: IN VITRO MICRONUCLEUS, Test System: CHL/IU CELLS, Metabolic Activation: RAT, LIVER, S-9, PHENOBARBITAL AND 5,6-BENZOFLAVONE) was “inactive; negative” and the mutagenic call (Test System: UDS RODENT HEPATOCYTES, Strain/Indicator: THY INCORP (NON-S-PHASE), Metabolic Activation: NONE, Method: AUTORADIOGRAPHY) was “active; positive”.

With `CCCN(CC(C)=O)N=O` the mutagenic call (Test System: CHINESE HAMSTER V-79, Strain/Indicator: V-79/OUABAIN, Metabolic Activation: HAMSTER, HEPATOCYTES, Method: CELL-MEDIATED) was “active; positive”.

In the case of `COc1c(O)c(Cl)c(Cl)c(Cl)c1Cl`, the mutagenic call (Test System: CHINESE HAMSTER V-79, Strain/Indicator: V-79/6-THIOGUANINE, Metabolic Activation: NONE, Method: STANDARD PLATE) is reported as “inactive; negative”.

For `NC(N)=O`, the mutagenic call (Test System: AMES SALMONELLA TYPHIMURIUM, Strain/Indicator: TA98, Metabolic Activation: NONE, Method: PREINCUBATION) was “inactive; negative”, the mutagenic call (Test System: AMES SALMONELLA TYPHIMURIUM, Strain/Indicator: TA98, Metabolic Activation: RAT, LIVER, S-9, KC 500, Method: PREINCUBATION) was “inactive; negative” and the mutagenic call (Test System: AMES SALMONELLA TYPHIMURIUM, Strain/Indicator: TA100, Metabolic Activation: NONE, Method: PREINCUBATION) was “inactive; negative”. The mutagenic call (Test System: AMES SALMONELLA TYPHIMURIUM, Strain/Indicator: TA100, Metabolic Activation: RAT, LIVER, S-9, KC 500, Method: PREINCUBATION) was “inactive; negative”, the mutagenic call (Test System: AMES SALMONELLA TYPHIMURIUM, Strain/Indicator: TA1535, Metabolic Activation: NONE, Method: PREINCUBATION) was “inactive; negative” and the mutagenic call (Test System: AMES SALMONELLA TYPHIMURIUM, Strain/Indicator: TA1535, Metabolic Activation: RAT, LIVER, S-9, KC 500, Method: PREINCUBATION) was “inactive; negative”. For the same molecule, the mutagenic call (Test System: AMES SALMONELLA TYPHIMURIUM, Strain/Indicator: TA1537, Metabolic Activation: NONE, Method: PREINCUBATION) was “inactive; negative”, the mutagenic call (Test System: AMES SALMONELLA TYPHIMURIUM, Strain/Indicator: TA1537, Metabolic Activation: RAT, LIVER, S-9, KC 500, Method: PREINCUBATION) was “inactive; negative” and the mutagenic call (Test System: AMES SALMONELLA TYPHIMURIUM, Strain/Indicator: TA1538, Metabolic Activation: NONE, Method: PREINCUBATION) was “inactive; negative”. For the same molecule, the mutagenic call (Test System: AMES SALMONELLA TYPHIMURIUM, Strain/Indicator: TA1538, Metabolic Activation: RAT, LIVER, S-9, KC 500, Method: PREINCUBATION) was “inactive; negative”, the mutagenic call (Test System: E. COLI, Strain/Indicator: WP2 UVRA, Metabolic Activation: NONE, Method: PREINCUBATION) was “inactive; negative” and the mutagenic call (Test System: E. COLI, Strain/Indicator: WP2 UVRA, Metabolic Activation: RAT, LIVER, S-9, KC 500, Method: PREINCUBATION) was “inactive; negative”. For the same molecule, the mutagenic call (Test System: MOUSE LYMPHOMA, Strain/Indicator: L5178Y (TK+/TK-), Metabolic Activation: NONE, Method: SUSPENSION/PLATE) was “active; positive”.

From PubChem BioAssay AID1259407 (Chemical Carcinogenesis Research Information System (CCRIS), 2018)
